Measurements taken from PubChem BioAssay (NCI).
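Tested at 5 concentrations; 48 h exposure; 96-well plates; endpoints linearly interpolated, else capped at highest concentration. GI50 = concentration required for 50% inhibition of growth. TGI: concentration producing complete growth inhibition.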

Tests used:
Assay in all cases: inhibition of tumour cell growth, NCI panel, 48 h
[1] = tested on: HCT-116 colon
[2] = tested on: MCF7 breast
[3] = tested on: OVCAR-5 ovarian
[4] = tested on: LOX IMVI melanoma
[5] = tested on: SR leukemia
[6] = tested on: SN12C renal
[7] = tested on: MOLT-4 leukemia
[8] = tested on: MDA-MB-231 breast
[9] = tested on: UACC-257 melanoma
[10] = tested on: SK-OV-3 ovarian
[11] = tested on: TK-10 renal
[12] = tested on: SF-268 CNS
[13] = tested on: IGROV1 ovarian
[14] = tested on: HT29 colon
[15] = tested on: KM12 colon
[16] = tested on: UO-31 renal
[17] = tested on: PC-3 prostate
[18] = tested on: HCT-15 colon
[19] = tested on: 786-0 renal
[20] = tested on: SNB-19 CNS
[21] = tested on: HS 578T breast
[22] = tested on: HL-60(TB) leukemia
[23] = tested on: NCI-H522 lung
[24] = tested on: RPMI-8226 leukemia
[25] = tested on: T-47D breast
[26] = tested on: SNB-75 CNS
[27] = tested on: MDA-MB-435
[28] = tested on: HOP-62 NSCLC
[29] = tested on: OVCAR-4 ovarian

## O=C(Nc1cccc2cccnc12)c1ccc(N2C(=O)[C@@H]3[C@H](C2=O)[C@@H]2C=C[C@H]3C2)cc1
[1]
  GI50: 35.8 µM
  TGI: > 100 µM
[2]
  GI50: 25.1 µM
  TGI: > 100 µM
[3]
  GI50: 55.9 µM
  TGI: > 100 µM
[4]
  GI50: 31.8 µM
  TGI: > 100 µM
[5]
  GI50: 30 µM
  TGI: > 100 µM
[6]
  GI50: 28.7 µM
  TGI: > 100 µM
[7]
  GI50: 22.1 µM
  TGI: > 66.6 µM
[8]
  GI50: 33.2 µM
  TGI: > 100 µM
[9]
  GI50: 30.5 µM
  TGI: > 100 µM
[10]
  GI50: > 62.4 µM
  TGI: > 100 µM
[11]
  GI50: 4.13 µM
  TGI: > 100 µM
[12]
  GI50: 35.7 µM
  TGI: > 100 µM
[13]
  GI50: 32.7 µM
  TGI: > 100 µM
[14]
  GI50: 18 µM
  TGI: 62.4 µM
[15]
  GI50: 30.9 µM
  TGI: > 100 µM
[16]
  GI50: 3.1 µM
  TGI: > 100 µM
[17]
  GI50: 25.1 µM
  TGI: > 100 µM
[18]
  GI50: 30.7 µM
  TGI: > 100 µM
[19]
  GI50: > 74.2 µM
  TGI: > 100 µM
[20]
  GI50: 41.6 µM
  TGI: > 100 µM
[21]
  GI50: 40.8 µM
  TGI: > 100 µM
[22]
  GI50: 21 µM
  TGI: 59 µM
[23]
  GI50: 18.4 µM
  TGI: 54.4 µM
[24]
  GI50: 23.2 µM
  TGI: > 88.2 µM
[25]
  GI50: 20.2 µM
  TGI: > 79.3 µM
[26]
  GI50: > 44.2 µM
  TGI: > 100 µM
[27]
  GI50: 32.1 µM
  TGI: > 100 µM
[28]
  GI50: 36.7 µM
  TGI: > 100 µM
[29]
  GI50: 3.26 µM
  TGI: 48.6 µM
